Assay results published in ChEMBL document CHEMBL1833803, “Discovery of 1-amino-5H-pyrido[4,3-b]indol-4-carboxamide inhibitors of Janus kinase 2 (JAK2) for the treatment of myeloproliferative disorders” (J Med Chem, 2011).
≈ marks a conversion by molar mass, not a printed value.

What was measured:
[1] = Tmax in rat at 2 mg/kg, po; format: ADME, organism-based; set-up: dose 2 mg/kg, route oral; conditions: in vivo
Mus musculus [2] = species on record: Mus musculus; assay: Prevention of darbepoetin-induced increase in spleen weight in C57/BL6 mouse PV model; format: functional, organism-based; conditions: C57Bl/6
[3] = Plasma clearance in dog at 0.5 mg/kg, iv; format: ADME, organism-based, Canis lupus familiaris; set-up: dose 0.5 mg/kg, route intravenous
Cytochrome P450 3A4 = Cytochrome P450 3A4 (Homo sapiens, UniProt P08684); assay: Inhibition of CYP3A4; format: ADME
Rhesus monkey [4] = assay: Dose normalized AUC in monkey at 0.5 mg/kg, iv; format: ADME, organism-based, Macaca mulatta; set-up: dose 0.5 mg/kg, route intravenous; conditions: in vivo
[5] = Oral bioavailability in monkey at 1 mg/kg; format: ADME, organism-based, Macaca mulatta; conditions: rhesus monkey, in vivo
Rhesus monkey [6] = assay: Dose normalized AUC in monkey at 1 mg/kg, po; format: ADME, organism-based, Macaca mulatta; set-up: dose 1 mg/kg, route oral; conditions: in vivo
[7] = Cmax in monkey at 1 mg/kg, po; format: ADME, organism-based, Macaca mulatta; set-up: dose 1 mg/kg, route oral; conditions: rhesus monkey, in vivo
[8] = target: T1, Tyrosine-protein kinase JAK2 (Homo sapiens, UniProt O60674); assay: Inhibition of JAK2-mediated STAT5 phosphorylation in human HEL 92.1.7 irf1-bla cells; format: cell-based
[9] = Volume of distribution at steady state in rat at 1 mg/kg, iv; format: ADME, organism-based; set-up: dose 1 mg/kg, route intravenous; conditions: in vivo, read-out: Vdss
[10] = target: Sodium channel protein type 5 subunit alpha (Homo sapiens, UniProt Q14524); assay: Inhibition of NaV1.5
Mus musculus [11] = assay: Reduction in pSTAT5 concentration in po dosed darbepoetin-stimulated C57B1/6 mouse
Canis familiaris [12] = assay: Dose normalized AUC in dog at 1 mg/kg, po; format: ADME, organism-based, Canis lupus familiaris; set-up: dose 1 mg/kg, route oral; conditions: in vivo
[13] = Volume of distribution at steady state in dog at 0.5 mg/kg, iv; format: ADME, organism-based, Canis lupus familiaris; set-up: dose 0.5 mg/kg, route intravenous; conditions: in vivo, read-out: Vdss
[14] = Tmax in monkey at 1 mg/kg, po; format: ADME, organism-based, Macaca mulatta; set-up: dose 1 mg/kg, route oral; conditions: rhesus monkey, in vivo
[15] = Plasma clearance in rat at 1 mg/kg, iv; format: ADME, organism-based; set-up: dose 1 mg/kg, route intravenous
Cytochrome P450 2D6 = Cytochrome P450 2D6 (Homo sapiens, UniProt P10635); assay: Inhibition of CYP2D6; format: ADME
[16] = Tmax in dog at 1 mg/kg, po; format: ADME, organism-based, Canis lupus familiaris; set-up: dose 1 mg/kg, route oral; conditions: in vivo
[17] = target: Potassium voltage-gated channel subfamily E member 1 (Homo sapiens, UniProt P15382); assay: Inhibition of Iks channel
[18] = target: Voltage-dependent L-type calcium channel subunit alpha-1C (Rattus norvegicus, UniProt P22002); assay: Inhibition of rat CaV1.2
[19] = Volume of distribution at steady state in monkey at 0.5 mg/kg, iv; format: ADME, organism-based, Macaca mulatta; set-up: dose 0.5 mg/kg, route intravenous; conditions: rhesus monkey, in vivo, read-out: Vdss
Canis familiaris [20] = assay: Dose normalized AUC in dog at 0.5 mg/kg, iv; format: ADME, organism-based, Canis lupus familiaris; set-up: dose 0.5 mg/kg, route intravenous; conditions: in vivo
Rattus norvegicus [21] = assay: Dose normalized AUC in rat at 2 mg/kg, po; format: ADME, organism-based; set-up: dose 2 mg/kg, route oral; conditions: in vivo
[22] = Oral bioavailability in dog at 1 mg/kg; format: ADME, organism-based, Canis lupus familiaris; conditions: in vivo
[23] = Half life in dog at 0.5 mg/kg, iv; format: ADME, organism-based, Canis lupus familiaris; set-up: dose 0.5 mg/kg, route intravenous; conditions: in vivo
[24] = Plasma clearance in monkey at 0.5 mg/kg, iv; format: ADME, organism-based, Macaca mulatta; set-up: dose 0.5 mg/kg, route intravenous; conditions: rhesus monkey
[25] = target: T2, Tyrosine-protein kinase JAK2 (Homo sapiens, UniProt O60674, V617F); assay: Inhibition of JAK2 V617F mutant
Cytochrome P450 2C9 = Cytochrome P450 2C9 (Homo sapiens, UniProt P11712); assay: Inhibition of CYP2C9; format: ADME
CYP2C9 = CYP2C9 (Homo sapiens, UniProt P11712); assay: Inhibition of CYP2C9 at 10 uM; format: ADME
[26] = target: T1, Tyrosine-protein kinase JAK2; assay: Inhibition of JAK2 using biotin-EQEDEPEGDYFEWLE- NH2 as substrate
Mus musculus [27] = species on record: Mus musculus; assay: Prevention of darbepoetin-induced elevation of hematocrit in C57/BL6 mouse PV model; format: functional, organism-based; conditions: C57Bl/6
[28] = Oral bioavailability in rat at 2 mg/kg; format: ADME, organism-based; conditions: in vivo
[29] = Half life in rat at 1 mg/kg, iv; format: ADME, organism-based; set-up: dose 1 mg/kg, route intravenous; conditions: in vivo
Rattus norvegicus [30] = assay: Dose normalized AUC in rat at 1 mg/kg, iv; format: ADME, organism-based; set-up: dose 1 mg/kg, route intravenous; conditions: in vivo
[31] = Half life in monkey at 0.5 mg/kg, iv; format: ADME, organism-based, Macaca mulatta; set-up: dose 0.5 mg/kg, route intravenous; conditions: rhesus monkey, in vivo
[32] = target: T2, Tyrosine-protein kinase JAK2; assay: Inhibition of JAK2 V617F mutant-mediated STAT5 phosphorylation in mouse BAF3 cells; format: cell-based
[33] = Clearance in rat at 1 mg/kg, iv; format: ADME, organism-based; set-up: dose 1 mg/kg, route intravenous; conditions: in vivo
[34] = Cmax in rat at 2 mg/kg, po; format: ADME, organism-based; set-up: dose 2 mg/kg, route oral; conditions: in vivo
CYP3A4 = CYP3A4 (Homo sapiens, UniProt P08684); assay: Inhibition of CYP3A4 at 10 uM; format: ADME
[35] = Cmax in dog at 1 mg/kg, po; format: ADME, organism-based, Canis lupus familiaris; set-up: dose 1 mg/kg, route oral; conditions: in vivo
[36] = Selectivity ratio of IC50 for JAK3 to IC50 for JAK2
[37] = Lipophilicity, log D of the compound at pH 7.4; format: physicochemical; conditions: buffer
[38] = Plasma clearance in rat at 1 mg/kg, iv and 2 mg/kg, po; format: ADME, organism-based
[39] = target: T3, Tyrosine-protein kinase JAK3 (Homo sapiens, UniProt P52333); assay: Inhibition of JAK3
T3 sequence (P52333 whole entry): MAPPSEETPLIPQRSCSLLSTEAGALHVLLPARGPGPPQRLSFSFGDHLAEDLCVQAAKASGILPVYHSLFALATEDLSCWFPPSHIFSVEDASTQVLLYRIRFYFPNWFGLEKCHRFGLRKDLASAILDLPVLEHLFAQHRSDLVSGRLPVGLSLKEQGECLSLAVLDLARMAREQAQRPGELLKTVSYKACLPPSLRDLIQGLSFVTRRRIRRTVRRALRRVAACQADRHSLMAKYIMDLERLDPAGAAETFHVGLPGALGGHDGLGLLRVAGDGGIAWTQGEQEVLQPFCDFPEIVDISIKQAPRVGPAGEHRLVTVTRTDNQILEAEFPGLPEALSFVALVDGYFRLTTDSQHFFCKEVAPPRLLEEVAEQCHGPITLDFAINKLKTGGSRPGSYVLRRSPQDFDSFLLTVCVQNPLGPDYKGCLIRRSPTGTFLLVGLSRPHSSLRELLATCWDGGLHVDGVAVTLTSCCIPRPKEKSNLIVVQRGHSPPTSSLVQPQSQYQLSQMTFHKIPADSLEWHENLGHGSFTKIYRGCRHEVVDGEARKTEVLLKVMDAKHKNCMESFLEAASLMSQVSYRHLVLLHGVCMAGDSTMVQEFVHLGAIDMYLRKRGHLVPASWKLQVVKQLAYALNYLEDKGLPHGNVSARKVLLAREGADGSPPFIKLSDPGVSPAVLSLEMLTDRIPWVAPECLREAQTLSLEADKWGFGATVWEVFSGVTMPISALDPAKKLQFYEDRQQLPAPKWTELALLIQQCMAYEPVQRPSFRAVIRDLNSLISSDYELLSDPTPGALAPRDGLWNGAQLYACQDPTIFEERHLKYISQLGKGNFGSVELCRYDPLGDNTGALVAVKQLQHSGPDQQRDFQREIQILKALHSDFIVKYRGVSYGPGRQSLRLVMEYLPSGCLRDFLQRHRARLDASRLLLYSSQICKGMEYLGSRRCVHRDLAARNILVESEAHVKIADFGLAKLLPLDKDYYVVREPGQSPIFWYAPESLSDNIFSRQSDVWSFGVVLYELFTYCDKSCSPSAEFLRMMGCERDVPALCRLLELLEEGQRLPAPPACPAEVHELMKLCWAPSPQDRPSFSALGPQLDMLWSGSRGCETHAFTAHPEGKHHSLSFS

[40] = target: T1, Tyrosine-protein kinase JAK2; assay: Inhibition of JAK2
[41] = target: T1, Tyrosine-protein kinase JAK2; assay: Competitive inhibition of JAK2 in the presence of 15 uM ATP
[42] = target: T1, Tyrosine-protein kinase JAK2; assay: Competitive inhibition of JAK2 in the presence of 2 mM ATP
[43] = Aqueous solubility of the compound; format: physicochemical; conditions: buffer
[44] = Oral bioavailability in rat at 4 mg/kg; format: ADME, organism-based; conditions: in vivo
[45] = Plasma clearance in rat at 2 mg/kg, iv and 4 mg/kg, po; format: ADME, organism-based
[46] = target: Non-receptor tyrosine-protein kinase TYK2 (Homo sapiens, UniProt P29597); assay: Inhibition of TYK2
[47] = target: Tyrosine-protein kinase JAK1 (Homo sapiens, UniProt P23458); assay: Inhibition of JAK1
Chain of Tyrosine-protein kinase JAK1 (P23458 whole entry): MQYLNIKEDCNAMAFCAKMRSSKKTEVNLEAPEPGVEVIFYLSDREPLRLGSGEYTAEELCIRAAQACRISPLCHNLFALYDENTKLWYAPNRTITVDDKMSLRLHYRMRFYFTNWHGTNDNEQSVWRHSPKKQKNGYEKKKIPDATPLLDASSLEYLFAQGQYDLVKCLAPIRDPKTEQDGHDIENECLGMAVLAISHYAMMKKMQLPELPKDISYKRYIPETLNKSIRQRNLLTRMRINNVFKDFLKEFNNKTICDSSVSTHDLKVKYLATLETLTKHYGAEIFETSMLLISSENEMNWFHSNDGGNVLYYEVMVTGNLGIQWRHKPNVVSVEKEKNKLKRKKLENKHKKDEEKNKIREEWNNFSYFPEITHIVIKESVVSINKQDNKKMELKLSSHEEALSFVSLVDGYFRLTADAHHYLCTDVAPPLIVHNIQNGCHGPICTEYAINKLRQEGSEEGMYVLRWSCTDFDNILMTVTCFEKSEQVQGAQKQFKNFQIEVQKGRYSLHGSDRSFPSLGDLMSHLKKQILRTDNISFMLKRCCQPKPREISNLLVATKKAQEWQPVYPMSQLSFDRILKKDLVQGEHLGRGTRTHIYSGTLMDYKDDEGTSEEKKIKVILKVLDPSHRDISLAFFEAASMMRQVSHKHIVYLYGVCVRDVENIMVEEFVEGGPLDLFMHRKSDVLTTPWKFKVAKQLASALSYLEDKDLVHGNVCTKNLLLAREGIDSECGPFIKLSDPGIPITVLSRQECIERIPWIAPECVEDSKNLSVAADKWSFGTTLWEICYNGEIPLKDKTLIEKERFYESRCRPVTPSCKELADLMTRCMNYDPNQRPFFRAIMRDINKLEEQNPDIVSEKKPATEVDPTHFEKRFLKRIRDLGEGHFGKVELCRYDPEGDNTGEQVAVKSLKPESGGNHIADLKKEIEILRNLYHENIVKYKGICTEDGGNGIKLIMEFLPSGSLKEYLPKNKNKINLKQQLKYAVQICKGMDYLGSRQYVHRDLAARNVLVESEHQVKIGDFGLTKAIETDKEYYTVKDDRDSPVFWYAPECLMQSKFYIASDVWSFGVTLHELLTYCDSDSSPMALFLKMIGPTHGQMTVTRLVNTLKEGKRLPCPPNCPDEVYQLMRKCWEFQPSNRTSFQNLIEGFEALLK

T1 sequence (O60674 whole entry): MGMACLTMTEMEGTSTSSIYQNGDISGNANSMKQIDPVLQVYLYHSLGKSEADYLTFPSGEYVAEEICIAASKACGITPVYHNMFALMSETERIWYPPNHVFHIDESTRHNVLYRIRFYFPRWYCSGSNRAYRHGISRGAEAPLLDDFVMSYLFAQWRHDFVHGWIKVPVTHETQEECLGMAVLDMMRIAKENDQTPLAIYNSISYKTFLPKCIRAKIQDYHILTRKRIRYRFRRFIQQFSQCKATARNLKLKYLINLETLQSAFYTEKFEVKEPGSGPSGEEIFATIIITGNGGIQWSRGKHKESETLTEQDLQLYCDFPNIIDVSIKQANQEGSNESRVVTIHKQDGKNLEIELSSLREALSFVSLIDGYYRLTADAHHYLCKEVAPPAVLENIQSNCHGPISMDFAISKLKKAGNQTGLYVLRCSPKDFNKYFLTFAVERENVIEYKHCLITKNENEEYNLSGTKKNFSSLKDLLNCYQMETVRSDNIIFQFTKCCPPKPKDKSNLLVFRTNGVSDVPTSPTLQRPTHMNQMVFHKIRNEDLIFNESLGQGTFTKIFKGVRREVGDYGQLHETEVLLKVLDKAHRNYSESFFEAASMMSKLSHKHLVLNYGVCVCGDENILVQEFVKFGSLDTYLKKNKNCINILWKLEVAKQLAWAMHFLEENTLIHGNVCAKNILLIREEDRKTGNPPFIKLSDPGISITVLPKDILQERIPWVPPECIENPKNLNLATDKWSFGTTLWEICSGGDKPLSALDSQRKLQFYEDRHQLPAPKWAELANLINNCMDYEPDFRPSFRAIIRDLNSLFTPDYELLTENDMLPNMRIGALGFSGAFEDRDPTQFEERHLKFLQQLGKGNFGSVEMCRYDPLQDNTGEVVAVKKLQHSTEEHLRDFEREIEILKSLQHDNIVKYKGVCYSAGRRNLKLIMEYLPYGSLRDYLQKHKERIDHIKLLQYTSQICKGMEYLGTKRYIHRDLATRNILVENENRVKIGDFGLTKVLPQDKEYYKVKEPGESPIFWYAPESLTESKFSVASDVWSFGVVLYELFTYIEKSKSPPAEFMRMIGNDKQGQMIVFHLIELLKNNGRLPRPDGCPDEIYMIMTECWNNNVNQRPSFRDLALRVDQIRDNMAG
T2 sequence (O60674 whole entry V617F): as the sequence (O60674 whole entry) above, with V617F counted along it
Chain of CYP2C9 (P11712 whole entry): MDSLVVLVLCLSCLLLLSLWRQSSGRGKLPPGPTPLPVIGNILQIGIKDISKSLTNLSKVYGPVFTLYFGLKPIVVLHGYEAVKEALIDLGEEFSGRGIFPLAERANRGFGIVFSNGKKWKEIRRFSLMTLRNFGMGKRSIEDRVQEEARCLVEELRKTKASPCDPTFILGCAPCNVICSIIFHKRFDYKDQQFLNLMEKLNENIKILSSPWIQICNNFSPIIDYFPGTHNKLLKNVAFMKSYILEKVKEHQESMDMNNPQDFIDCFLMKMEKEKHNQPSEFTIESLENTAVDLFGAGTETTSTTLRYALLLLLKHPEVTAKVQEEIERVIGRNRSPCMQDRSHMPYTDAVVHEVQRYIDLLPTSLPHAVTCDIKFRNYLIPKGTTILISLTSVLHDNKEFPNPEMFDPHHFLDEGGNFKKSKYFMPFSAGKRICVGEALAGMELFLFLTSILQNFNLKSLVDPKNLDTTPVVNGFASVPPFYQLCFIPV
Chain of Cytochrome P450 2C9 (P11712 whole entry): as above
Chain of Cytochrome P450 2D6 (P10635 whole entry): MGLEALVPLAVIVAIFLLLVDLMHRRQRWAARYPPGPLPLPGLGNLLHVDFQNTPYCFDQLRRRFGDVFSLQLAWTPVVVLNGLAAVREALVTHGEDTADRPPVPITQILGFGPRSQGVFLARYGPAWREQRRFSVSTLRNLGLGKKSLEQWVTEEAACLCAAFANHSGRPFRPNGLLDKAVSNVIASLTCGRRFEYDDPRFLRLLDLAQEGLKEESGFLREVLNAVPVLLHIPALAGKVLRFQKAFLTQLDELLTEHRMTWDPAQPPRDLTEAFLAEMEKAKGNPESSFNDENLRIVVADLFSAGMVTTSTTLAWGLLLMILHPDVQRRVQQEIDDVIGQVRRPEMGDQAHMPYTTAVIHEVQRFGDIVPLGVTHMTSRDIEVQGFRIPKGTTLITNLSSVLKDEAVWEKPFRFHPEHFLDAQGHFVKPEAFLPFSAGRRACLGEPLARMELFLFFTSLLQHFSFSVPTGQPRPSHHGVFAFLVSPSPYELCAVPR
Chain of Cytochrome P450 3A4 (P08684 whole entry): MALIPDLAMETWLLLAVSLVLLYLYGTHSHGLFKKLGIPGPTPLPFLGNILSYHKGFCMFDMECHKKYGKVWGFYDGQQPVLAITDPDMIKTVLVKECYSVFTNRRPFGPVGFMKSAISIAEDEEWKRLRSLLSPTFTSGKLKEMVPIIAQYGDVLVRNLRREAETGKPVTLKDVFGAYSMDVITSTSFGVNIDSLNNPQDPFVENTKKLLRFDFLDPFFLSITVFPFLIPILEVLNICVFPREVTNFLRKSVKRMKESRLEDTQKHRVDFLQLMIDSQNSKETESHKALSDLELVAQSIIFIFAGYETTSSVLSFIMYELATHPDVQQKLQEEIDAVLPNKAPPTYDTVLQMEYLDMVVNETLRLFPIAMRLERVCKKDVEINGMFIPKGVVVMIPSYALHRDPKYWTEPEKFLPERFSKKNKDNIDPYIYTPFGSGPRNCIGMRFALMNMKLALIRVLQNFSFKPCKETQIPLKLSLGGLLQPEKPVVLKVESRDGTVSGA
Chain of CYP3A4 (P08684 whole entry): as above

## NC(=O)c1cnc(N[C@H](C2CC2)C(F)(F)F)c2c1[nH]c1cc(-c3cnc(N)nc3)ccc12
[1]
  Tmax: 6 h
Mus musculus [2]
  Activity: Dose-dependent effect
[3]
  clearance: 18 mL/min/kg
Cytochrome P450 3A4
  IC50: > 75000 nM
Rhesus monkey [4]
  AUC/dose: 5.2 µM·h/mg/kg
[5]
  bioavailability: 66%
Rhesus monkey [6]
  AUC/dose: 3.4 µM·h/mg/kg
[7]
  Cmax: 200 nM
[8]
  IC50: 25 nM
[9]
  Vd: 2.5 L/kg
[10]
  IC50: > 30000 nM
Mus musculus [11]
  IC50: 1200 nM
Canis familiaris [12]
  AUC/dose: 2.5 µM·h/mg/kg
[13]
  Vd: 6.1 L/kg
[14]
  Tmax: 6 h
[15]
  clearance: 7.4 mL/min/kg
Cytochrome P450 2D6
  IC50: > 75000 nM
[16]
  Tmax: 5.1 h
[17]
  IC50: > 10000 nM
[18]
  IC50: > 30000 nM
[19]
  Vd: 4.7 L/kg
Canis familiaris [20]
  AUC/dose: 2.4 µM·h/mg/kg
Rattus norvegicus [21]
  AUC/dose: 3.4 µM·h/mg/kg
[22]
  bioavailability: 120%
[23]
  half-life: 5.2 h
[24]
  clearance: 7.4 mL/min/kg
[25]
  IC50: 0.4 nM
Cytochrome P450 2C9
  IC50: > 75000 nM
CYP2C9
  inhibition at 10 µM: 34%
[26]
  IC50: 0.8 nM
Mus musculus [27]
  Activity: Dose-dependent effect
[28]
  bioavailability: 67%
[29]
  half-life: 4.5 h
Rattus norvegicus [30]
  AUC/dose: 5.3 µM·h/mg/kg
[31]
  half-life: 7.3 h
[32]
  IC50: 11 nM
[33]
  clearance: 7 mL/min/kg
[34]
  Cmax: 600 nM
CYP3A4
  inhibition at 10 µM: 30%
[35]
  Cmax: 300 nM

## O=c1[nH]ccc2c1c1cc(F)ccc1n2-c1ccccc1
[36]
  Ratio IC50: 0.7
[37]
  logD: 4.3
[38]
  clearance: 13 mL/min/kg
[39]
  IC50: 720 nM
[40]
  IC50: 1100 nM
[28]
  bioavailability: 89%

## CCNc1ncc(C(N)=O)c2[nH]c3ccc(F)cc3c12
[36]
  Ratio IC50: 30
[37]
  logD: 2
[41]
  IC50: 230 nM
[39]
  IC50: 6800 nM
[42]
  IC50: > 15000 nM
[40]
  IC50: 230 nM
[26]
  IC50: 230 nM
[28]
  bioavailability: 87%
[43]
  solubility: 6 µM (≈ 1.63 µg/mL)

## O=c1[nH]ccc2c3[nH]c(-c4ccccc4Cl)nc3c3ccc(F)cc3c12
[36]
  Ratio IC50: 26
[37]
  logD: 3.6
[44]
  bioavailability: 100%
[39]
  IC50: 77 nM
[45]
  clearance: 5.4 mL/min/kg
[40]
  IC50: 3 nM
[46]
  IC50: 7 nM
[43]
  solubility: < 2 µM
[47]
  IC50: 2 nM
